Reference: PubChem BioAssay (NCI)
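Cultured in 96-well plates, cells were exposed to test compound for 48 hours across five concentrations. GI50: concentration for 50% inhibition of growth. TGI: concentration producing complete growth inhibition.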

How the values were obtained:
Assay in all cases: inhibition of tumour cell growth, NCI panel, 48 h
TK-10 renal = system: TK-10 renal
SK-OV-3 ovarian = system: SK-OV-3 ovarian
MOLT-4 leukemia = system: MOLT-4 leukemia
LOX IMVI melanoma = system: LOX IMVI melanoma
HCT-116 colon = system: HCT-116 colon
HL-60(TB) leukemia = system: HL-60(TB) leukemia
DU-145 prostate = system: DU-145 prostate
UO-31 renal = system: UO-31 renal
SN12C renal = system: SN12C renal
SF-268 CNS = system: SF-268 CNS
CCRF-CEM leukemia = system: CCRF-CEM leukemia
NCI-H226 lung = system: NCI-H226 lung
KM12 colon = system: KM12 colon
U251 CNS = system: U251 CNS
CAKI-1 renal = system: CAKI-1 renal
HT29 colon = system: HT29 colon
NCI-H460 lung = system: NCI-H460 lung
EKVX NSCLC = system: EKVX NSCLC
MALME-3M melanoma = system: MALME-3M melanoma
OVCAR-4 ovarian = system: OVCAR-4 ovarian
SK-MEL-5 melanoma = system: SK-MEL-5 melanoma
RPMI-8226 leukemia = system: RPMI-8226 leukemia
UACC-257 melanoma = system: UACC-257 melanoma
SF-539 CNS = system: SF-539 CNS
SW-620 colon = system: SW-620 colon
HCC-2998 colon = system: HCC-2998 colon
SR leukemia = system: SR leukemia
OVCAR-3 ovarian = system: OVCAR-3 ovarian
HS 578T breast = system: HS 578T breast
PC-3 prostate = system: PC-3 prostate
A549 NSCLC = system: A549 NSCLC
SK-MEL-2 melanoma = system: SK-MEL-2 melanoma
M14 melanoma = system: M14 melanoma
HCT-15 colon = system: HCT-15 colon
NCI-H522 lung = system: NCI-H522 lung
NCI-H23 lung = system: NCI-H23 lung
MDA-MB-435 = system: MDA-MB-435
SNB-75 CNS = system: SNB-75 CNS
HOP-92 NSCLC = system: HOP-92 NSCLC
MDA-MB-231 breast = system: MDA-MB-231 breast
ACHN renal = system: ACHN renal
K-562 leukemia = system: K-562 leukemia
RXF 393 renal = system: RXF 393 renal
SK-MEL-28 melanoma = system: SK-MEL-28 melanoma
A498 renal = system: A498 renal
NCI/ADR-RES ovarian = system: NCI/ADR-RES ovarian
HOP-62 NSCLC = system: HOP-62 NSCLC
COLO 205 colon = system: COLO 205 colon
SF-295 CNS = system: SF-295 CNS
MDA-MB-468 breast = system: MDA-MB-468 breast
SNB-19 CNS = system: SNB-19 CNS
OVCAR-8 ovarian = system: OVCAR-8 ovarian
OVCAR-5 ovarian = system: OVCAR-5 ovarian
786-0 renal = system: 786-0 renal
UACC-62 melanoma = system: UACC-62 melanoma

Structure (SMILES): COc1cc(-c2ccc3ncnc(N4CCc5ccc(Cl)cc54)c3c2)cnc1Cl
- GI50 (TK-10 renal): 2.12 µM
- TGI (TK-10 renal): 7.87 µM
- GI50 (SK-OV-3 ovarian): 3.84 µM
- TGI (SK-OV-3 ovarian): > 100 µM
- GI50 (MOLT-4 leukemia): 3.36 µM
- TGI (MOLT-4 leukemia): > 100 µM
- GI50 (LOX IMVI melanoma): 2.97 µM
- TGI (LOX IMVI melanoma): 29.5 µM
- GI50 (HCT-116 colon): 2.89 µM
- TGI (HCT-116 colon): > 100 µM
- GI50 (HL-60(TB) leukemia): 2.1 µM
- TGI (HL-60(TB) leukemia): 9.97 µM
- GI50 (DU-145 prostate): 3.21 µM
- TGI (DU-145 prostate): > 100 µM
- GI50 (UO-31 renal): 1.14 µM
- TGI (UO-31 renal): > 100 µM
- GI50 (SN12C renal): 3.34 µM
- TGI (SN12C renal): > 100 µM
- GI50 (SF-268 CNS): 3.29 µM
- TGI (SF-268 CNS): > 100 µM
- GI50 (CCRF-CEM leukemia): 5.7 µM
- TGI (CCRF-CEM leukemia): > 100 µM
- GI50 (NCI-H226 lung): 2.39 µM
- TGI (NCI-H226 lung): 21.5 µM
- GI50 (KM12 colon): 3.99 µM
- TGI (KM12 colon): > 100 µM
- GI50 (U251 CNS): 4.71 µM
- TGI (U251 CNS): > 100 µM
- GI50 (CAKI-1 renal): 1.66 µM
- TGI (CAKI-1 renal): 12.7 µM
- GI50 (HT29 colon): 2.88 µM
- TGI (HT29 colon): 16.4 µM
- GI50 (NCI-H460 lung): 2.95 µM
- TGI (NCI-H460 lung): > 100 µM
- GI50 (EKVX NSCLC): 1.94 µM
- TGI (EKVX NSCLC): > 100 µM
- GI50 (MALME-3M melanoma): 4.6 µM
- TGI (MALME-3M melanoma): 43.3 µM
- GI50 (OVCAR-4 ovarian): 3.12 µM
- TGI (OVCAR-4 ovarian): 95.5 µM
- GI50 (SK-MEL-5 melanoma): 2.15 µM
- TGI (SK-MEL-5 melanoma): 9.36 µM
- GI50 (RPMI-8226 leukemia): 4.44 µM
- TGI (RPMI-8226 leukemia): > 100 µM
- GI50 (UACC-257 melanoma): 6.32 µM
- TGI (UACC-257 melanoma): > 100 µM
- GI50 (SF-539 CNS): 3.06 µM
- TGI (SF-539 CNS): 11.6 µM
- GI50 (SW-620 colon): 3.06 µM
- TGI (SW-620 colon): > 100 µM
- GI50 (HCC-2998 colon): 3.46 µM
- TGI (HCC-2998 colon): > 100 µM
- GI50 (SR leukemia): 4.08 µM
- TGI (SR leukemia): > 100 µM
- GI50 (OVCAR-3 ovarian): 2.49 µM
- TGI (OVCAR-3 ovarian): > 100 µM
- GI50 (HS 578T breast): 1.84 µM
- TGI (HS 578T breast): 7.41 µM
- GI50 (PC-3 prostate): 2.52 µM
- TGI (PC-3 prostate): > 100 µM
- GI50 (A549 NSCLC): 3.03 µM
- TGI (A549 NSCLC): > 100 µM
- GI50 (SK-MEL-2 melanoma): 5.12 µM
- TGI (SK-MEL-2 melanoma): > 100 µM
- GI50 (M14 melanoma): 3.88 µM
- TGI (M14 melanoma): > 100 µM
- GI50 (HCT-15 colon): 3.17 µM
- TGI (HCT-15 colon): > 100 µM
- GI50 (NCI-H522 lung): 2.12 µM
- TGI (NCI-H522 lung): 10.1 µM
- GI50 (NCI-H23 lung): 2.91 µM
- TGI (NCI-H23 lung): > 100 µM
- GI50 (MDA-MB-435): 3.32 µM
- TGI (MDA-MB-435): > 100 µM
- GI50 (SNB-75 CNS): 1.56 µM
- TGI (SNB-75 CNS): 7 µM
- GI50 (HOP-92 NSCLC): 2.11 µM
- TGI (HOP-92 NSCLC): > 100 µM
- GI50 (MDA-MB-231 breast): 3.94 µM
- TGI (MDA-MB-231 breast): 20.8 µM
- GI50 (ACHN renal): 2.4 µM
- TGI (ACHN renal): 14.4 µM
- GI50 (K-562 leukemia): 3.83 µM
- TGI (K-562 leukemia): > 100 µM
- GI50 (RXF 393 renal): 1.78 µM
- TGI (RXF 393 renal): 6.77 µM
- GI50 (SK-MEL-28 melanoma): 3.84 µM
- TGI (SK-MEL-28 melanoma): 46.7 µM
- GI50 (A498 renal): 1.54 µM
- TGI (A498 renal): 7.16 µM
- GI50 (NCI/ADR-RES ovarian): 2.23 µM
- TGI (NCI/ADR-RES ovarian): > 100 µM
- GI50 (HOP-62 NSCLC): 6.12 µM
- TGI (HOP-62 NSCLC): 81.3 µM
- GI50 (COLO 205 colon): 4.21 µM
- TGI (COLO 205 colon): > 100 µM
- GI50 (SF-295 CNS): 2.62 µM
- TGI (SF-295 CNS): 24.6 µM
- GI50 (MDA-MB-468 breast): 1.26 µM
- TGI (MDA-MB-468 breast): 4.47 µM
- GI50 (SNB-19 CNS): 3.78 µM
- TGI (SNB-19 CNS): 83.6 µM
- GI50 (OVCAR-8 ovarian): 3.64 µM
- TGI (OVCAR-8 ovarian): > 100 µM
- GI50 (OVCAR-5 ovarian): 3.29 µM
- TGI (OVCAR-5 ovarian): > 100 µM
- GI50 (786-0 renal): 3.22 µM
- TGI (786-0 renal): 27.7 µM
- GI50 (UACC-62 melanoma): 2.25 µM
- TGI (UACC-62 melanoma): > 100 µM
